Patent US9409882B2, “Pyridine derivatives” (Hoffmann-La Roche Inc., priority 2012, dated 2016)

Legend:
[1] = molecular target: human Cathepsin S (Homo sapiens (Human), UniProt P25774); assay: Cathepsin enzyme inhibition assay (fluorogenic peptide substrate), human Cat S; format: biochemical; conditions: human Cat S 1 nM, substrate Z-Val-Val-Arg-AMC 20 μM, pH 6.5
Protocol: (§1) Cathepsin Enzyme Inhibition Assay
(§2) Enzyme activity is measured by observing the increase in fluorescence intensity caused by cleavage of a peptide substrate containing a fluorophore whose emission is quenched in the intact peptide.
(§3) Assay buffer: 100 mM potassium phosphate pH 6.5, EDTA-Na 5 mM, Triton X-100 0.001%, DTT 5 mM.
(§4) Enzymes (all at 1 nM): human and mouse Cathepsin S, Cat K, Cat B, Cat L.
(§5) Substrate (20 μM): Z-Val-Val-Arg-AMC, except for Cat K which uses Z-Leu-Arg-AMC (both from Bachem).
(§6) AMC=7-Amino-4-Methyl-Coumarin.
(§7) Excitation 360 nm, Emission 465 nm.
(§8) Enzyme is added to the substance dilutions in 96-well microtitre plates and the reaction is started with substrate. […] IC50 are calculated by standard methods.
(§9) Inhibition of human Cat S, mouse Cat S, human Cat K, human Cat B, human Cat L and mouse Cat L have been measured separately.

[2] = molecular target: human Cat L (Homo sapiens (Human), UniProt P07711); assay: Cathepsin enzyme inhibition assay (fluorogenic peptide substrate), human Cat L; format: biochemical; conditions: human Cat L 1 nM, substrate Z-Val-Val-Arg-AMC 20 μM, pH 6.5
human Cat L, sequence (P07711 114-333): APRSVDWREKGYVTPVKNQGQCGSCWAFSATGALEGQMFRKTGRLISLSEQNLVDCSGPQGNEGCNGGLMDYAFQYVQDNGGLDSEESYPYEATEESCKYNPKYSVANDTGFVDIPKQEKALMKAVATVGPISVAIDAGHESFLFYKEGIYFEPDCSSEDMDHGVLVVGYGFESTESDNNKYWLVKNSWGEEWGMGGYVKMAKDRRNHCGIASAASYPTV
Protocol: as §1, §2, §3, §4, §5, §6, §7, §8, §9

human Cathepsin S, sequence (P25774 115-331): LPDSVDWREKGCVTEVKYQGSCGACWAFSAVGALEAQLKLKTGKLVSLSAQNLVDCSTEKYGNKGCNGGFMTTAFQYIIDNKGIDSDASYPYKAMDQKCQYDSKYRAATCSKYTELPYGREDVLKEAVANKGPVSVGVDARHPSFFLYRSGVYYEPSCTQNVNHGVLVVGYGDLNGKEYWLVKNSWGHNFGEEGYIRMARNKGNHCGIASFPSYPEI

Row | Compound | IC50 [1] [nM] | IC50 [2] [nM]
1 | COc1ccc(S(=O)(=O)[C@@H]2C[C@@H](C(=O)NC3(C#N)CC3)N(C(=O)C3(c4ncc(Cl)cc4F)CC3)C2)c(Cl)c1 [Example 4, (2S,4R)-1-[1-(5-Chloro-3-fluoro-pyridin-2-yl)-cyclopropanecarbonyl]-4-(2-chloro-4-methoxy-benzenesulfonyl)-pyrrolidine-2-carboxylic acid (1-cyano-cyclopropyl)-amide] | 0.393 | 11.9
2 | N#CC1(NC(=O)[C@@H]2C[C@@H](S(=O)(=O)c3ccccn3)CN2C(=O)C2(c3ncc(Cl)cc3F)CC2)CC1 [Example 18, (2S,4R)-1-[1-(5-Chloro-3-fluoro-pyridin-2-yl)-cyclopropanecarbonyl]-4-(pyridine-2-sulfonyl)-pyrrolidine-2-carboxylic acid (1-cyano-cyclopropyl)-amide] | 4.24 | 3430
3 | N#CC1(NC(=O)[C@@H]2C[C@@H](S(=O)(=O)c3ccccc3-n3ccnn3)CN2C(=O)C2(c3ncc(I)cc3F)CC2)CC1 [Example 44, (2S,4R)-1-[1-(3-Fluoro-5-iodo-pyridin-2-yl)-cyclopropanecarbonyl]-4-(2-[1,2,3]triazol-1-yl-benzenesulfonyl)-pyrrolidine-2-carboxylic acid (1-cyano-cyclopropyl)-amide] | 2.37 | 1560
